Assay results taken from patent US11285156B2, “Substituted piperazines as KRAS G12C inhibitors” (Amgen Inc., priority 2018, dated 2022).
Read-outs that look alike come from different tables or passages of the source.

Assays:
[1] = target: GDP-bound KRAS protein (aa 1-169), containing both G12C and C118A amino acid substitutions (Homo sapiens (Human), UniProt P01116, C118A/G12C); assay: Coupled nucleotide exchange assay (SOS-mediated nucleotide exchange, AlphaScreen); assay type: biochemical; details: 5 min compound pre-incubation; for IC50: read-out: Coupled exchange IC50 (5 min; μM)
Chain of GDP-bound KRAS protein (aa 1-169), containing both G12C and C118A amino acid substitutions (P01116 other isoform, or with tags, fused parts or gaps G12C/C118A): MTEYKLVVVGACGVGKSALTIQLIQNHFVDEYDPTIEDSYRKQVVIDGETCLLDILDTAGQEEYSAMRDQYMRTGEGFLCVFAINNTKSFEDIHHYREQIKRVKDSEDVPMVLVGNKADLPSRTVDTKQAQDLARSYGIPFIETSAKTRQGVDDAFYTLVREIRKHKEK

[2] = system: Phosphorylation of ERK1/2 in MIA PaCa-2 cells; assay: Phospho-ERK1/2 MSD assay in MIA PaCa-2 cells; assay type: cell-based; details: read-out: p-ERK IC50 (2 h, MiaPaCa-2; μM)
How it was run: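 Phospho-ERK1/2 measured by MSD electrochemiluminescence kit in RIPA lysates of MIA PaCa-2 cells. Cells were treated with compound titrations for 2 or 4 h at 37 °C, 5% CO2, followed by a 10 min pulse of 10 ng/mL EGF.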

[3] = system: Phosphorylation of ERK1/2 in A549 cells; assay: Phospho-ERK1/2 MSD assay in A549 cells; assay type: cell-based; details: read-out: p-ERK IC50 (2 h, A549; μM)
How it was run: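 Readout: MSD phospho-ERK1/2 signal after compound (2 or 4 h) and 10 min EGF stimulation at 10 ng/mL.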

[4] = Homo sapiens, MIA PaCa-2, 2 h, 2 h compound treatment, MIA PaCa-2 cells, EGF stimulated
[5] = Homo sapiens, A549, 2 h, 2 h compound treatment, A549 cells, EGF stimulated

Row | Structure (SMILES) | IC50 [1] [µM] | IC50 [2, 4] [µM] | IC50 [3, 5] [µM] | Coupled exchange IC50 (5 min; μM) [1] [µM] | IC50 ([2]; 2 h compound treatment, MIA PaCa-2 cells, EGF stimulated) [µM] | IC50 ([3]; 2 h compound treatment, A549 cells, EGF stimulated) [µM] | IC50 ([2]; Homo sapiens, MIA PaCa-2, 2 h) [µM] | IC50 ([3]; Homo sapiens, A549, 2 h) [µM]
1 | C=CC(=O)N1C[C@H](C)N(c2nc(=O)n(-c3c(C)ncnc3C(C)C)c3nc(-c4ccccc4F)c(Cl)cc23)C[C@H]1C [Example 194, 4-((2S,5R)-4-Acryloyl-2,5-dimethylpiperazin-1-yl)-6-chloro-7-(2-fluorophenyl)-1-(4-isopropyl-6-methylpyrimidin-5-yl)pyrido[2,3-d]pyrimidin-2(1H)-one] | 0.186 | 0.048 | > 7.5 | – | – | – | – | –
2 | C=CC(=O)N1C[C@H](C)N(c2nc(=O)n(-c3c(C(C)C)cnnc3C(C)C)c3nc(-c4ccccc4F)c(Cl)cc23)C[C@H]1C [Example 205, 4-((2S,5R)-4-Acryloyl-2,5-dimethylpiperazin-1-yl)-6-chloro-1-(3,5-diisopropylpyridazin-4-yl)-7-(2-fluorophenyl)pyrido[2,3-d]pyrimidin-2(1H)-one] | 0.08 | 0.095 | > 7.5 | – | – | – | – | –
3 | C=CC(=O)N1[C@H](C)CN(c2nc(=O)n(-c3c(C(C)C)cnnc3C(C)C)c3nc(-c4ccccc4F)c(Cl)cc23)C[C@@H]1C [Example 206-2, 4-(cis-4-Acryloyl-3,5-dimethylpiperazin-1-yl)-6-chloro-1-(3,5-diisopropylpyridazin-4-yl)-7-(2-fluorophenyl)pyrido[2,3-d]pyrimidin-2(1H)-one] | – | – | – | 0.098 | 0.139 | > 7.5 | – | –
4 | C=CC(=O)N1C[C@H](C)N(c2nc(=O)n(-c3ccc(S(C)(=O)=O)cc3C(C)C)c3nc(-c4ccccc4F)c(Cl)cc23)C[C@H]1C [Example 208, 4-((2S,5R)-4-Acryloyl-2,5-dimethylpiperazin-1-yl)-6-chloro-7-(2-fluorophenyl)-1-(2-isopropyl-4-(methylsulfonyl)phenyl)pyrido[2,3-d]pyrimidin-2(1H)-one] | – | 0.14 | > 7.5 | 0.231 | – | – | – | –
5 | C=CC(=O)N1C[C@H](C)N(c2nc(=O)n(-c3c(C)ccnc3C(C)C)c3nc(-c4ccccc4S(C)(=O)=O)c(Cl)cc23)C[C@H]1C [Example 210, 4-((2S,5R)-4-Acryloyl-2,5-dimethylpiperazin-1-yl)-6-chloro-1-(2-isopropyl-4-methylpyridin-3-yl)-7-(2-(methylsulfonyl)phenyl)pyrido[2,3-d]pyrimidin-2(1H)-one] | – | 0.039 | > 7.5 | 0.049 | – | – | – | –
6 | C=CC(=O)N1C[C@H](C)N(c2nc(=O)n(-c3c(C)cc([S+](C)[O-])cc3C(C)C)c3nc(-c4ccccc4C)c(Cl)cc23)C[C@H]1C (stereo partly drawn) [Example 213, 4-((2S,5R)-4-Acryloyl-2,5-dimethylpiperazin-1-yl)-6-chloro-1-(2-isopropyl-6-methyl-4-(methylsulfinyl)phenyl)-7-(o-tolyl)pyrido[2,3-d]pyrimidin-2(1H)-one] | 0.182 | 0.104 | > 7.5 | – | – | – | – | –
7 | C=CC(=O)N1C[C@H](C)N(C2=NC(=O)CN(c3c(C)ccnc3C(C)C)c3nc(-c4ccccc4F)c(Cl)cc32)C[C@H]1C [Example 218, 5-((2S,5R)-4-Acryloyl-2,5-dimethylpiperazin-1-yl)-7-chloro-8-(2-fluorophenyl)-1-(2-isopropyl-4-methylpyridin-3-yl)-1,2-dihydro-3H-pyrido[2,3-e][1,4]diazepin-3-one] | 0.094 | – | – | – | – | – | 0.035 | > 7.5
8 | C=CC(=O)N1C[C@H](C)N(c2nc(=O)n(-c3c(C(C)C)nc(N)nc3C(C)C)c3nc(-c4ccccc4F)c(Cl)cc23)C[C@H]1C [Example 229, 4-((2S,5R)-4-Acryloyl-2,5-dimethylpiperazin-1-yl)-1-(2-amino-4,6-diisopropylpyrimidin-5-yl)-6-chloro-7-(2-fluorophenyl)pyrido[2,3-d]pyrimidin-2(1H)-one] | 0.071 | 0.032 | > 7.5 | – | – | – | – | –
